The results in this text go back to ChEMBL document CHEMBL1135837, “Approach to dual-acting platelet activating factor (PAF) receptor antagonist/thromboxane synthase inhibitor (TxSI) based on the link of PAF antagonists and TxSIs” (Bioorg Med Chem Lett, 2002).

Assay type in all cases: functional
The species named for one experiment is Oryctolagus cuniculus. Kind of experiment: In vitro inhibition of platelet activating factor induced platelet aggregation in rabbit platelet rich plasma.
Another experiment addresses T1, Thromboxane-A synthase (Homo sapiens, UniProt P24557).
T1 sequence (P24557 whole entry): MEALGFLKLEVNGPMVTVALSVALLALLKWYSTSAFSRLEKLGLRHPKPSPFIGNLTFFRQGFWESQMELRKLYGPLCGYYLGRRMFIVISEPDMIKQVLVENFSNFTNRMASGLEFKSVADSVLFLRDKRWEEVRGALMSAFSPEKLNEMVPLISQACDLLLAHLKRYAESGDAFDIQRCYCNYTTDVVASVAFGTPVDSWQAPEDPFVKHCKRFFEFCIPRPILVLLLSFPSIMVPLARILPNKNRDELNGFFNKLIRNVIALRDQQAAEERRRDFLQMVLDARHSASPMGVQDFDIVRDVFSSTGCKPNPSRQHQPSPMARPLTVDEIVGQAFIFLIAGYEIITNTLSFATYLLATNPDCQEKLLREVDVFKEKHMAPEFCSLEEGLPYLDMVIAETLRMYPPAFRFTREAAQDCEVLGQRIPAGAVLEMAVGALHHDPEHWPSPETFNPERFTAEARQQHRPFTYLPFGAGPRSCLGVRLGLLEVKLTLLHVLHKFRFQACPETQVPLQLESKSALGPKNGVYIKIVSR
Kind of experiment: In vitro inhibition of TXB2 production by incubating prostaglandin H2 with human platelet microsomes.

The species entered for a further experiment is Mus musculus. Kind of experiment: Ex vivo antagonistic activity towards platelet activating factor was assessed in mouse by using PAF-induced death assay.

As to `CCOC(=O)CCCCO/N=C(/c1cccnc1)c1ccccc1C(=O)N1CCN(C(=O)C2CSC(c3cccnc3)N2)CC1` (stereo not given), the IC50 (usually the concentration that inhibits the measured activity by half) was 560 nM in the experiment filed under Oryctolagus cuniculus and > 1000 nM on Thromboxane-A synthase.
On the same counts, the results for `CCOC(=O)CCCCO/N=C(\c1cccnc1)c1cccc(CN2CCN(C(=O)C3CSC(c4cccnc4)N3)CC2)c1` (stereo not given) are 200 nM and 88 nM.
On the same counts, the results for `CCOC(=O)CCCCO/N=C(\c1ccc(NC(=O)C2CSC(c3cccnc3)N2)cc1)c1cccnc1` (stereo not given) are > 1000 nM and 21 nM.
On the same counts, the results for `CCOC(=O)CCCCO/N=C(\c1cccnc1)c1cccc(NC(=O)c2ccn3c2CSC3c2cccnc2)c1` (stereo not given) are 450 nM and 1.2 nM.
Take `CCOC(=O)CCCCO/N=C(/c1cccnc1)c1cccc(CNS(=O)(=O)c2ccc(Cn3c(C)nc4cnccc43)cc2)c1`: the IC50 amounted to 68 nM in the experiment filed under Oryctolagus cuniculus and 4.7 nM at Thromboxane-A synthase.
For `CCOC(=O)CCCCO/N=C(/c1ccccc1)c1cccnc1`, on Thromboxane-A synthase, the IC50 was found to be 1 nM.
On to `Cc1nc2cnccc2n1Cc1ccc(S(=O)(=O)NCc2cccc(/C(=N\OCCCCC(=O)O)c3cccnc3)c2)cc1`, for which the figures for the half-inhibitory concentration (IC50) in the experiment listed under Oryctolagus cuniculus and at Thromboxane-A synthase were > 1000 nM and 1.8 nM, respectively.
On the same counts, the results for `CCOC(=O)CCCCO/N=C(/c1cccnc1)c1cccc(C(=O)N2CCN(C(=O)C3CSC(c4cccnc4)N3)CC2)c1` (stereo not given) are 480 nM and 52 nM.
The matching figures for `CCOC(=O)CCCCO/N=C(\c1cccnc1)c1cccc(CNS(=O)(=O)c2ccc(Cn3c(C)nc4cnccc43)cc2)c1`: 68 nM and 5.8 nM.
For `CCOC(=O)CCCCO/N=C(\c1ccc(NC(=O)c2ccn3c2CSC3c2cccnc2)cc1)c1cccnc1` (stereo not given), the 50% inhibitory concentration (IC50) in the experiment filed under Oryctolagus cuniculus worked out at 550 nM; against Thromboxane-A synthase, 3.6 nM.
In the experiment filed under Oryctolagus cuniculus, `CCOC(=O)C1=C(c2ccc(-n3c(C)nc4cnccc43)cc2)NC(C)=C(C(=O)Nc2ccccn2)C1c1ccccc1Cl` (stereo not given) came in with an IC50 of 29 nM.
Regarding `CCOC(=O)CCCCO/N=C(/c1cccnc1)c1cccc(C(=O)N2CCc3c(sc4c3C(c3ccccc3Cl)=NC(C)c3nnc(C)n3-4)C2)c1` (stereo not given), the IC50 in the experiment filed under Oryctolagus cuniculus came out at 60 nM; on Thromboxane-A synthase, 65 nM. Besides, it took a dose of 2.3 mg/kg to reach the 50% effect level in the experiment filed under Mus musculus (ED50).
As for `CCOC(=O)CCCCO/N=C(\c1ccc(CN2CCN(C(=O)C3CSC(c4cccnc4)N3)CC2)cc1)c1cccnc1` (stereo not given), the IC50 was 280 nM in the experiment listed under Oryctolagus cuniculus and 72 nM against Thromboxane-A synthase.
For `O=C(O)CCCCO/N=C(\c1cccnc1)c1cccc(CN2CCN(C(=O)C3CSC(c4cccnc4)N3)CC2)c1` (stereo not given), the results for the IC50 in the experiment listed under Oryctolagus cuniculus and at Thromboxane-A synthase were > 1000 nM and 12 nM, respectively.
As for `CCOC(=O)CCCCO/N=C(\c1ccc(C(=O)N2CCc3c(sc4c3C(c3ccccc3Cl)=NC(C)c3nnc(C)n3-4)C2)cc1)c1cccnc1` (stereo not given), the IC50 in the experiment listed under Oryctolagus cuniculus is 100 nM; against Thromboxane-A synthase, 72 nM. Further, the 50% effect level in the experiment filed under Mus musculus (ED50) was put at a dose of 0.5 mg/kg.
For `CCOC(=O)CCCCO/N=C(\c1cccnc1)c1cccc(NC(=O)C2CSC(c3cccnc3)N2)c1` (stereo not given), the IC50 in the experiment filed under Oryctolagus cuniculus is > 1000 nM; on Thromboxane-A synthase, 21 nM.
The matching figures for `CCOC(=O)CCCCO/N=C(\c1ccc(C(=O)N2CCN(C(=O)C3CSC(c4cccnc4)N3)CC2)cc1)c1cccnc1` (stereo not given): 610 nM and 44 nM.
`Cc1nnc2n1-c1sc3c(c1C(c1ccccc1Cl)=N[C@H]2C)CCN(C(=O)C1CC1)C3` (racemic): in the experiment filed under Oryctolagus cuniculus, half-maximal inhibition (IC50) was put at 360 nM.
